Experiments:
[1] = system: unidentified influenza virus; experiment: Antiviral activity against influenza virus; type: functional, organism-based
Hepatitis B virus = experiment: Antiviral activity against Hepatitis B virus; type: functional, organism-based
Human alphaherpesvirus 2 = experiment: Antiviral activity against Herpes simplex virus 2; type: functional, organism-based; conditions: Human alphaherpesvirus 2
Vaccinia virus = experiment: Antiviral activity against Vaccinia virus; type: functional, organism-based, Orthopoxvirus vaccinia; conditions: Orthopoxvirus vaccinia
Human alphaherpesvirus 3 = experiment: Antiviral activity against Varicella zoster virus; type: functional, organism-based
Human betaherpesvirus 5 = experiment: Antiviral activity against Human cytomegalovirus; type: functional, organism-based; conditions: Human betaherpesvirus 5
Human alphaherpesvirus 1 = experiment: Antiviral activity against Herpes simplex virus 1; type: functional, organism-based; conditions: Human alphaherpesvirus 1
Human papillomavirus = experiment: Antiviral activity against Human papillomavirus; type: functional, organism-based
Hepatitis C virus = experiment: Antiviral activity against Hepatitis C virus; type: functional, organism-based, Hepacivirus hominis; conditions: Hepatitis C virus
[2] = system: Human immunodeficiency virus 1; experiment: Antiviral activity against HIV1; type: functional, organism-based

SMILES	IC50 [1] [µM]	IC50 (Hepatitis B virus) [µM]	further results
O=C(Nc1ccc2c(c1)N(O)C(=O)/C2=C(\O)c1ccccc1)c1ccc(NC(=O)c2cccs2)cc1	20	–	–
CC(C)Oc1ccc(Sc2nc(N)nc3c2ncn3CCOCP(=O)(OCC(F)(F)F)OCC(F)(F)F)cc1	–	0.29	–
Cc1c(N)nc(N)nc1OCCOCP(=O)(O)O	–	–	IC50 (Human alphaherpesvirus 2): 0.0012 µM; IC50 (Vaccinia virus): 0.00086 µM; IC50 (Human alphaherpesvirus 3): 1.8e-05 µM; IC50 (Human betaherpesvirus 5): 0.00072 µM; IC50 (Human alphaherpesvirus 1): 0.0012 µM
CS(=O)(=O)c1ccc(-c2ccccc2)cc1	–	–	IC50 (Human papillomavirus): 80 µM
O=C(O)/C=C/C(=O)c1ccccc1	500	–	–
C[C@@H](NC(=O)c1cccc(-c2ccc(S(=O)(=O)CC(=O)O)cc2)c1)c1ccccc1	–	–	IC50 (Human papillomavirus): 0.043 µM
O=C(NO)c1ccccc1 [BENZOHYDROXAMATE]	500	–	–
Nc1nc(Sc2ccc([N+](=O)[O-])cc2)c2ncn(CCOCP(=O)(OCC(F)(F)F)OCC(F)(F)F)c2n1	–	0.52	–
O=C(O)CS(=O)(=O)c1ccc(-c2ccc(CC(=O)Nc3ccccc3)cc2)cc1	–	–	IC50 (Human papillomavirus): 0.16 µM
O=C(O)CS(=O)(=O)c1ccc(-c2ccc(C(=O)N(Cc3ccccc3)Cc3ccccc3)cc2)cc1	–	–	IC50 (Human papillomavirus): 1.1 µM
CCc1nn([C@H]2C[C@H](O)[C@@H](CO)S2)c(=O)nc1O	–	–	IC50 (Human alphaherpesvirus 2): 200 µM; IC50 (Vaccinia virus): 200 µM; IC50 (Human alphaherpesvirus 3): 40 µM; IC50 (Human betaherpesvirus 5): 40 µM; IC50 (Human alphaherpesvirus 1): 120 µM
O=C(O)CS(=O)(=O)c1ccc(-c2cccc(C(=O)NCc3cccc4ccccc34)c2)cc1	–	–	IC50 (Human papillomavirus): 0.0043 µM
Cc1ccccc1CNC(=O)c1cccc(-c2ccc(S(=O)(=O)CC(=O)O)cc2)c1	–	–	IC50 (Human papillomavirus): 0.032 µM
O=C(O)CS(=O)(=O)c1ccc(-c2cccc(C(=O)N3CCOCC3)c2)cc1	–	–	IC50 (Human papillomavirus): 22 µM
O=C(O)C(=O)CCc1ccccc1	500	–	IC50 (Hepatitis C virus): 50 µM
O=c1[nH]c(=O)n([C@H]2C[C@H](O)[C@@H](CO)O2)cc1/C=C/Br [BRIVUDINE]	–	–	IC50 (Human alphaherpesvirus 2): 0.076 µM; IC50 (Vaccinia virus): 400 µM; IC50 (Human alphaherpesvirus 3): 29 µM; IC50 (Human betaherpesvirus 5): 150 µM; IC50 (Human alphaherpesvirus 1): 48 µM
O=C(Nc1cccc(C(=O)O)c1)Nc1ccc2c(C(=O)c3ccccc3)c(O)n(O)c2c1	3	–	–
O=S(=O)(O)CS(=O)(=O)c1ccc(-c2ccccc2)cc1	–	–	IC50 (Human papillomavirus): 32 µM
O=C(NCc1cccc2ccccc12)c1cccc(-c2ccc(C(=O)C(F)(F)P(=O)(O)O)cc2)c1	–	–	IC50 (Human papillomavirus): 0.74 µM
NC(=O)CS(=O)(=O)c1ccc(-c2ccccc2)cc1	–	–	IC50 (Human papillomavirus): 80 µM
Cc1cn([C@H]2C[C@H](OP(=O)(S)OC[C@H]3O[C@@H](n4cnc5c(N)ncnc54)C[C@@H]3O)[C@@H](COP(=O)(S)O[C@H]3C[C@H](n4ccc(N)nc4=O)O[C@@H]3CO)O2)c(=O)[nH]c1=O (stereo partly drawn)	–	2.1	IC50 (Hepatitis C virus): 1 µM
Nc1ncnc2c1ncn2/C=C1/CC1(F)CO (stereo not drawn)	–	20	IC50 (Human alphaherpesvirus 3): 14 µM; IC50 [2]: 12 µM
O=C(O)CS(=O)(=O)c1ccc(-c2cccc(CC(=O)Nc3ccccc3)c2)cc1	–	–	IC50 (Human papillomavirus): 0.11 µM
CC(=O)Nc1nc(C)c(S(=O)(=O)Nc2ccc(C(=O)Nc3ccc4c(c3)N(O)C(=O)/C4=C(\O)c3ccccc3)cc2)s1	32	–	–
O=c1c2nccnc2ncn1O	500	–	–
COc1cccc(Sc2nc(N)nc3c2ncn3CCOCP(=O)(OCC(F)(F)F)OCC(F)(F)F)c1	–	0.04	–
CCOc1ccc(Sc2nc(N)nc3c2ncn3CCOCP(=O)(OCC(F)(F)F)OCC(F)(F)F)cc1	–	0.64	–

SMILES	IC50 [1] [µM]	IC50 (Hepatitis B virus) [µM]	further results
Cc1ccc(Sc2nc(N)nc3c2ncn3CCOCP(=O)(OCC(F)(F)F)OCC(F)(F)F)cc1	–	0.06	–
CCC(=O)c1c(O)n(O)c2cc(NC(=O)Nc3ccccc3Cl)ccc12	50	–	–
CCc1ccc(Sc2nc(N)nc3c2ncn3CCOCP(=O)(OCC(F)(F)F)OCC(F)(F)F)cc1	–	0.4	–
Nc1ncnc2c1ncn2/C=C1\CC1(F)CO (stereo not drawn)	–	15	IC50 (Human alphaherpesvirus 3): 83.4 µM
COc1ccccc1/C(Br)=C(\NC(=O)c1ccc([N+](=O)[O-])cc1)C(=O)N1CCCCC1	–	2.4	–
CCC(=O)c1c(O)n(O)c2cc(NC(=O)Nc3ccc(Cl)cc3)ccc12	38	–	–
CC(=O)c1c(O)n(O)c2cc(NC(=O)Nc3cccc(C(=O)O)c3)ccc12	14	–	–
O=C(O)/C(O)=C/C(=O)c1ccc(C2CCCCC2)cc1	5	–	–
O=C(O)CS(=O)(=O)c1ccc(-c2ccc(C(=O)NCc3ccccc3)cc2)cc1	–	–	IC50 (Human papillomavirus): 0.51 µM
Nc1nc(Sc2ccc3ccccc3c2)c2ncn(CCOCP(=O)(OCC(F)(F)F)OCC(F)(F)F)c2n1	–	0.09	–
COc1ccccc1Sc1nc(N)nc2c1ncn2CCOCP(=O)(OCC(F)(F)F)OCC(F)(F)F	–	0.08	–
CN(C(=O)c1ccc(-c2ccc(S(=O)(=O)CC(=O)O)cc2)cc1)c1ccccc1	–	–	IC50 (Human papillomavirus): 4.8 µM
O=C(Nc1ccc2c(c1)N(O)C(=O)/C2=C(\O)c1ccccc1)c1ccc(NS(=O)(=O)c2cccs2)cc1	48	–	–
Nc1nc(Sc2ccc(Cl)cc2)c2ncn(CCOCP(=O)(OCC(F)(F)F)OCC(F)(F)F)c2n1	–	0.12	–
O=C(N/C(C(=O)N1CCCCC1)=C(/Cl)c1ccccc1)c1ccccc1	–	21.4	–
CC(C)/C=C1\N=C(CC(C)C)C(=O)N(O)C1=O	5.5	–	–
O=C1c2ccccc2C(=O)N1O	500	–	–
NN1C(=O)Cc2ccccc2C1=O	800	–	–
O=P(O)(O)CS(=O)(=O)c1ccc(-c2ccccc2)cc1	–	–	IC50 (Human papillomavirus): 30 µM
O=C1CCc2ccccc2C(=O)N1O	1000	–	–
Nc1nc(Sc2ccccc2)c2ncn(CCOCP(=O)(OCC(F)(F)F)OCC(F)(F)F)c2n1	–	0.05	–
Cc1cccc(CNC(=O)c2cccc(-c3ccc(S(=O)(=O)CC(=O)O)cc3)c2)c1C	–	–	IC50 (Human papillomavirus): 0.0092 µM
Cc1nn([C@H]2C[C@H](O)[C@@H](CO)S2)c(=O)nc1O	–	–	IC50 (Human alphaherpesvirus 2): 3.3 µM; IC50 (Vaccinia virus): 2.2 µM; IC50 (Human alphaherpesvirus 3): 5 µM; IC50 (Human betaherpesvirus 5): 200 µM; IC50 (Human alphaherpesvirus 1): 18 µM
Nc1ccn([C@@H]2CS[C@H](COP(=O)(O)OP(=O)(O)OP(=O)(O)O)O2)c(=O)n1 [LAMIVUDINE TRIPHOSPHATE]	–	0.0075	–
Nc1ncnc2c1ccn2[C@H]1C[C@H](OP(=O)(S)OC[C@H]2O[C@@H](n3cnc4c(N)ncnc43)C[C@@H]2O)[C@@H](CO)O1 (stereo partly drawn)	–	0.3	IC50 (Hepatitis C virus): 1 µM
COc1ccc(Sc2nc(N)nc3c2ncn3CCOCP(=O)(OCC(F)(F)F)OCC(F)(F)F)cc1 [ALAMIFOVIR]	–	0.03	–
CCC(=O)c1c(O)n(O)c2cc(NC(=O)c3ccc(Cl)cc3Cl)ccc12	45	–	–

SMILES	IC50 [1] [µM]	IC50 (Hepatitis B virus) [µM]	further results
Cc1cccc(CNC(=O)c2cccc(-c3ccc(S(=O)(=O)CC(=O)O)cc3)c2)c1	–	–	IC50 (Human papillomavirus): 0.027 µM
O=C(O)CS(=O)(=O)c1ccc(Sc2ccccc2)cc1	–	–	IC50 (Human papillomavirus): 80 µM
CC(C)c1ccc(Sc2nc(N)nc3c2ncn3CCOCP(=O)(OCC(F)(F)F)OCC(F)(F)F)cc1	–	0.98	–
O=C(O)CS(=O)(=O)c1ccc(-c2ccc(CC(=O)NCc3ccccc3)cc2)cc1	–	–	IC50 (Human papillomavirus): 0.34 µM
O=C(/C=C/c1ccccc1Cl)Nc1ccc(C(=O)Nc2ccc3c(c2)N(O)C(=O)/C3=C(\O)c2ccccc2)cc1	9.5	–	–
O=C1Cc2ccccc2CN1O	100	–	–
CC(C)(C(=O)O)S(=O)(=O)c1ccc(-c2ccccc2)cc1	–	–	IC50 (Human papillomavirus): 80 µM
CC(C)COc1ccc(Sc2nc(N)nc3c2ncn3CCOCP(=O)(OCC(F)(F)F)OCC(F)(F)F)cc1	–	0.84	–
CCOC(=O)Cc1c(N)nc(N)n(CCOCP(=O)(O)O)c1=O	–	–	IC50 (Human alphaherpesvirus 2): 0.0012 µM; IC50 (Vaccinia virus): 0.0012 µM; IC50 (Human alphaherpesvirus 3): 0.00015 µM; IC50 (Human betaherpesvirus 5): 0.00015 µM; IC50 [2]: 0.0003 µM; IC50 (Human alphaherpesvirus 1): 0.0012 µM
O=C(Nc1ccc2c(C(=O)c3ccccc3)c(O)n(O)c2c1)NC1CCCCC1	50	–	–
O=C1Cc2ccccc2CC(=O)N1O	1000	–	–
O=C(Nc1ccccc1)Nc1ccc2c(C(=O)c3ccccc3)c(O)n(O)c2c1	29	–	–
CCCCOc1ccc(Sc2nc(N)nc3c2ncn3CCOCP(=O)(OCC(F)(F)F)OCC(F)(F)F)cc1	–	1	–
CCCOc1ccc(Sc2nc(N)nc3c2ncn3CCOCP(=O)(OCC(F)(F)F)OCC(F)(F)F)cc1	–	0.87	–
Nc1nc2c(ncn2/C=C2/CC2(F)CO)c(=O)[nH]1 (stereo not drawn)	–	20	IC50 (Human alphaherpesvirus 3): 79.6 µM; IC50 [2]: 100 µM
O=c1[nH]c2nccnc2c(=O)n1O	95	–	–
O=C1Cc2ccccc2C(=O)N1O	710	–	–
Cc1cn([C@@H]2O[C@H](CO)[C@@H](O)[C@@H]2F)c(=O)[nH]c1=O [5-METHYL-2'-FLUOROARAURACIL]	–	0.83	–
Nc1nc(Sc2ccc(OC(F)(F)F)cc2)c2ncn(CCOCP(=O)(OCC(F)(F)F)OCC(F)(F)F)c2n1	–	0.06	–
CC(C)CC1=N/C(=C\c2ccc(F)cc2)C(=O)NC1=O	365	–	–
NC(=O)/C(O)=C/C(=O)C1CCCCC1	500	–	–
CC(=O)c1c(O)n(O)c2cc(NC(=O)c3ccc4ccccc4c3)ccc12	9	–	–
COC(=O)/C(O)=C/C(=O)c1ccccc1	500	–	–
Cc1ccccc1Sc1nc(N)nc2c1ncn2CCOCP(=O)(OCC(F)(F)F)OCC(F)(F)F	–	0.08	–
Nc1nc(O)c2ncn(CCC(CO)CO)c2n1 [PENCICLOVIR]	–	103	–

Source: ChEMBL document CHEMBL1136837, “Unified QSAR approach to antimicrobials. 4. Multi-target QSAR modeling and comparative multi-distance study of the giant components of antiviral drug-drug complex networks” (Bioorg Med Chem, 2009)
